Here are results for twelve compounds from US8691753B2 (priority 2009, dated 2014).

Common to all, as to type: biochemical
The target in assay [1] is MMP-14h (Homo sapiens (Human), UniProt P50281). The assay is described as follows: Inhibition constant (Ki) on MMP-14h. To be noted: human MMP-14. The text has this: (§1) The inhibition constant Ki of these compounds has been determined according to the protocol described by Devel et al, 2006, J. Biol. Chem. (7).
(§2) In this table I and also in table II below, “h” corresponds to human. All of the compounds have therefore been evaluated on human MMPs.

In assay [2] the target is MMP-12h (Homo sapiens (Human), UniProt P39900). Briefly: Inhibition constant (Ki) on MMP-12h. To be noted: human MMP-12.
Sequence of MMP-12h (P39900 106-470): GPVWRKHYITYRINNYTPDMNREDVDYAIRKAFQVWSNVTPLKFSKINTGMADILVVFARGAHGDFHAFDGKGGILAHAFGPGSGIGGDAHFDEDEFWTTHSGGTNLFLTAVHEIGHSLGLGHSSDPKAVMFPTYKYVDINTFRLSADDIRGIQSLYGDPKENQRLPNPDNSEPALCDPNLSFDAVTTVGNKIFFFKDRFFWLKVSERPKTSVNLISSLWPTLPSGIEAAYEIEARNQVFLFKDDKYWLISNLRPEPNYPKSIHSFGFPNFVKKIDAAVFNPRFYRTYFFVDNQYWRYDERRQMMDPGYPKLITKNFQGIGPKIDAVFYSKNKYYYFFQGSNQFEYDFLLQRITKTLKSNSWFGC
Assay [3] deals with MMP-10h (Homo sapiens (Human), UniProt P09238). Briefly: Inhibition constant (Ki) on MMP-10h. To be noted: human MMP-10.
Sequence of MMP-10h (P09238 99-476): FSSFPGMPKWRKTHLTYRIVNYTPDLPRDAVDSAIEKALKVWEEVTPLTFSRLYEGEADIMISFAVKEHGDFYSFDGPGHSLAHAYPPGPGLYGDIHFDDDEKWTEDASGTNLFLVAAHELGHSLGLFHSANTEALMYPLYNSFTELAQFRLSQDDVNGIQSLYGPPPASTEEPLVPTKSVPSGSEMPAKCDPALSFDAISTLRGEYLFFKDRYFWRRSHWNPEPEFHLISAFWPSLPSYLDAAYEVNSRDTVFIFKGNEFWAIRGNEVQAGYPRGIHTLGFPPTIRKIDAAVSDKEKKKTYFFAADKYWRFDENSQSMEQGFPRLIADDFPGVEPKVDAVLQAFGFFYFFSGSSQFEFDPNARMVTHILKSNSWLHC
In assay [4] the target is MMP-13h (Homo sapiens (Human), UniProt P45452). The assay is described as follows: Inhibition constant (Ki) on MMP-13h. The conditions noted are these: human MMP-13.
Description: as §1, §2

The target of assay [5] is MMP-9h (Homo sapiens (Human), UniProt P14780). The assay is described as follows: Inhibition constant (Ki) on MMP-9h. The conditions noted are these: human MMP-9.
Sequence of MMP-9h (P14780 94-707): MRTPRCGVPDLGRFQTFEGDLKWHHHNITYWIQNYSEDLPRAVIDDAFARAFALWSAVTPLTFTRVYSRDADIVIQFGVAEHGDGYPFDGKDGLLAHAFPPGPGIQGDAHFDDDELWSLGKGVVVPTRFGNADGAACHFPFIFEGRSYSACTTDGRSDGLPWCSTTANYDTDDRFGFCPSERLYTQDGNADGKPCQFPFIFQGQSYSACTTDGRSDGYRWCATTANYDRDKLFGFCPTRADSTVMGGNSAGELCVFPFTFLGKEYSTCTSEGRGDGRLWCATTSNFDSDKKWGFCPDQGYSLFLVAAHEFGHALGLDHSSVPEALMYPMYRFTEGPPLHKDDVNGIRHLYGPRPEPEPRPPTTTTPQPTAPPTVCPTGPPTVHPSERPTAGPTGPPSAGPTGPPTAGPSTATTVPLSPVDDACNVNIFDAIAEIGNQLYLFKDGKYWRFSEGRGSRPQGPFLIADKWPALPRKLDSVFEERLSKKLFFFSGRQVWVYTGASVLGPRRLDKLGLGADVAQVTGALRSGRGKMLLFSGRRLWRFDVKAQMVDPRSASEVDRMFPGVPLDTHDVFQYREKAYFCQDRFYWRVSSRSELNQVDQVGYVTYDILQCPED
Description: as §1, §2

For assay [6], the target named is MMP-2h (Homo sapiens (Human), UniProt P08253). The assay is described as follows: Inhibition constant (Ki) on MMP-2h. To be noted: human MMP-2.
Sequence of MMP-2h (P08253 110-660): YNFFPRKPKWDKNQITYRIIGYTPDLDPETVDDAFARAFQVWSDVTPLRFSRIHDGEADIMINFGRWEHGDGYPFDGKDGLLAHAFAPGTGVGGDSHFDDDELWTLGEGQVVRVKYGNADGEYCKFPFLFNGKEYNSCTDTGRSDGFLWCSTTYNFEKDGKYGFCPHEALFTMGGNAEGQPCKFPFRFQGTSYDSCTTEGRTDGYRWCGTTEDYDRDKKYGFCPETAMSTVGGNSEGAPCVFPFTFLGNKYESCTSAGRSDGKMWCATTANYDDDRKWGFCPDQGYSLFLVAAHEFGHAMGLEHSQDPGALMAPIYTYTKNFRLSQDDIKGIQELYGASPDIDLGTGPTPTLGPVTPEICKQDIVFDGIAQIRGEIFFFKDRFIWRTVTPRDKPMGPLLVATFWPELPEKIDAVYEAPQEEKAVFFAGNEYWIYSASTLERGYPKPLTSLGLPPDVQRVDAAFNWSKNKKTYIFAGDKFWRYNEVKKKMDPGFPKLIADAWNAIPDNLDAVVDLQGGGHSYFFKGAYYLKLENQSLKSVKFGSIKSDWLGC
Description: as §1, §2

The target of assay [7] is MMP-8h (Homo sapiens (Human), UniProt P22894). Briefly: Inhibition constant (Ki) on MMP-8h. To be noted: human MMP-8.
Sequence of MMP-8h (P22894 101-467): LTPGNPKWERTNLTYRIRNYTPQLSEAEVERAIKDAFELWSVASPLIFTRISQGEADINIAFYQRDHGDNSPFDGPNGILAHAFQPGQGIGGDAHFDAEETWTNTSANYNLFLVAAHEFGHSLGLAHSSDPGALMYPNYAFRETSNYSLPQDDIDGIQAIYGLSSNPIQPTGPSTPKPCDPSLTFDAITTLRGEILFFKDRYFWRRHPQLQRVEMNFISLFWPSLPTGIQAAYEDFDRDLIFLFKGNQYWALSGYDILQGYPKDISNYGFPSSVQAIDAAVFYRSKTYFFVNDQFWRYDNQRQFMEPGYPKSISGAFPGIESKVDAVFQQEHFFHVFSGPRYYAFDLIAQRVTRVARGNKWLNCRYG
Assay [8] deals with MMP-3h (Homo sapiens (Human), UniProt P08254). Briefly: Inhibition constant (Ki) on MMP-3h. To be noted: human MMP-3.
Sequence of MMP-3h (P08254 100-477): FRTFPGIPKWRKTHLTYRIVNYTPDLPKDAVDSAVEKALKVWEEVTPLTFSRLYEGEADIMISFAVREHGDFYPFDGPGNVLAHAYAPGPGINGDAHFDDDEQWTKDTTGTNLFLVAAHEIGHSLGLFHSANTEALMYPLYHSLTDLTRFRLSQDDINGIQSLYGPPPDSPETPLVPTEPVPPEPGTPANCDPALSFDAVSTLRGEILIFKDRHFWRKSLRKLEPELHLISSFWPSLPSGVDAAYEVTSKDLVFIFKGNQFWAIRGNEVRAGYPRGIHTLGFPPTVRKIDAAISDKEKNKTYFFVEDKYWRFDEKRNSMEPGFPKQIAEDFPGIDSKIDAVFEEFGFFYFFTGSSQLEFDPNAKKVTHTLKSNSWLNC
Description: as §1, §2

The term Ki denotes a dissociation constant, usually derived from enzyme kinetics or from competition with a known ligand.

Each structure is given as a SMILES string. Read-outs that look alike come from different tables or passages of the source. Where only a bound is given, the exact number is not on record here.

Regarding `NC(=O)[C@H](CCC(=O)O)NC(=O)CCc1cc(-c2ccc(-c3cccc(Cl)c3)cc2)no1` [Compound 4, (S)-5-amino-4-(3-(3-(3′-chlorobiphenyl-4-yl)isoxazol-5-yl)propanamido)-5-oxopentanoic acid], the Ki in assay [1] (read-out: Ki MMP-14h) is above 1000 nM; in assay [2] (read-out: Ki MMP-12h), 11.8 nM; in assay [3] (read-out: Ki MMP-10h), 122 nM; in assay [4] (read-out: Ki MMP-13h) it was 46 nM; in assay [5] (read-out: Ki MMP-9h), 120 nM; in assay [6] (read-out: Ki MMP-2h) it was 90 nM. Further, the Ki was 119 nM in assay [7] (read-out: Ki MMP-8h) and 118 nM in assay [8] (read-out: Ki MMP-3h).

For `NC(=O)[C@@H](CCC(=O)O)NC(=O)[C@H](CCC(=O)O)NC(=O)CCc1cc(-c2ccc(-c3cccc(Cl)c3)cc2)no1` [Compound 5, (R)-5-amino-4-((S)-4-carboxy-2-(3-(3-(3′-chlorobiphenyl-4-yl)isoxazol-5-yl)propanamido)butanamido)-5-oxopentanoic acid], the Ki is above 1000 nM in assay [1] (read-out: Ki MMP-14h); 8.9 nM in assay [2] (read-out: Ki MMP-12h); 44 nM in assay [3] (read-out: Ki MMP-10h); 53 nM in assay [4] (read-out: Ki MMP-13h); above 1000 nM in assay [5] (read-out: Ki MMP-9h); 112 nM in assay [6] (read-out: Ki MMP-2h). Besides, the Ki in assay [7] (read-out: Ki MMP-8h) stood at 552 nM; in assay [8] (read-out: Ki MMP-3h), 240 nM.

`NC(=O)[C@H](CCC(=O)O)NC(=O)[C@@H](CCC(=O)O)NC(=O)CCc1cc(-c2ccc(-c3cccc(Cl)c3)cc2)no1` [Compound 6, (S)-5-amino-4-((R)-4-carboxy-2-(3-(3-(3′-chlorobiphenyl-4-yl)isoxazol-5-yl)propanamido)butanamido)-5-oxopentanoic acid]: the Ki in assay [1] (read-out: Ki MMP-14h) was above 10000 nM; in assay [2] (read-out: Ki MMP-12h), 401 nM; in assay [3] (read-out: Ki MMP-10h), 489 nM; in assay [4] (read-out: Ki MMP-13h), 235 nM; in assay [5] (read-out: Ki MMP-9h) it was above 5000 nM; in assay [6] (read-out: Ki MMP-2h), 403 nM. For the same compound, the values for the Ki in assay [7] (read-out: Ki MMP-8h) and in assay [8] (read-out: Ki MMP-3h) were above 5000 nM and above 1000 nM, respectively.

With `NC(=O)[C@@H](CCC(=O)O)NC(=O)[C@@H](CCC(=O)O)NC(=O)CCc1cc(-c2ccc(-c3cccc(Cl)c3)cc2)no1` [Compound 7, (R)-5-amino-4-((R)-4-carboxy-2-(3-(3-(3′-chlorobiphenyl-4-yl)isoxazol-5-yl)propanamido)butanamido)-5-oxopentanoic acid], the Ki was above 10000 nM in assay [1] (read-out: Ki MMP-14h); 268 nM in assay [2] (read-out: Ki MMP-12h); 111 nM in assay [3] (read-out: Ki MMP-10h); 114 nM in assay [4] (read-out: Ki MMP-13h); above 5000 nM in assay [5] (read-out: Ki MMP-9h); 538 nM in assay [6] (read-out: Ki MMP-2h). The Ki in assay [7] (read-out: Ki MMP-8h) was above 1000 nM; in assay [8] (read-out: Ki MMP-3h), 897 nM.

With `NC(=O)[C@H](CC(=O)O)NC(=O)[C@H](CCC(=O)O)NC(=O)CCc1cc(-c2ccc(-c3cccc(Cl)c3)cc2)no1` [Compound 8, (S)-5-((S)-1-amino-3-carboxy-1-oxopropan-2-ylamino)-4-(3-(3-(3′-chlorobiphenyl-4-yl)isoxazol-5-yl)propanamido)-5-oxopentanoic acid], the inhibition constant (Ki) in assay [1] (read-out: Ki MMP-14h) is above 1000 nM; in assay [2] (read-out: Ki MMP-12h) it was 11 nM; in assay [3] (read-out: Ki MMP-10h), 35 nM; in assay [4] (read-out: Ki MMP-13h) it was 30 nM; in assay [5] (read-out: Ki MMP-9h), above 1000 nM; in assay [6] (read-out: Ki MMP-2h) it was 112 nM. Further, the Ki in assay [7] (read-out: Ki MMP-8h) stood at 556 nM; in assay [8] (read-out: Ki MMP-3h) it was 243 nM.

On to `NC(=O)[C@H](CCC(=O)O)NC(=O)[C@H](CC(=O)O)NC(=O)CCc1cc(-c2ccc(-c3cccc(Cl)c3)cc2)no1` [Compound 9, (S)-5-amino-4-((S)-3-carboxy-2-(3-(3-(3′-chlorobiphenyl-4-yl)isoxazol-5-yl)propanamido)propanamido)-5-oxopentanoic acid], for which the Ki in assay [1] (read-out: Ki MMP-14h) is above 5000 nM; in assay [2] (read-out: Ki MMP-12h), 64 nM; in assay [3] (read-out: Ki MMP-10h), 520 nM; in assay [4] (read-out: Ki MMP-13h) it was 35 nM; in assay [5] (read-out: Ki MMP-9h), above 1000 nM; in assay [6] (read-out: Ki MMP-2h), 91 nM. In addition, the Ki in assay [7] (read-out: Ki MMP-8h) is 899 nM; in assay [8] (read-out: Ki MMP-3h), 381 nM.

Regarding `NC(=O)[C@H](CC(=O)O)NC(=O)[C@H](CC(=O)O)NC(=O)CCc1cc(-c2ccc(-c3cccc(Cl)c3)cc2)no1` [Compound 10, (S)-4-amino-3-((S)-3-carboxy-2-(3-(3-(3′-chlorobiphenyl-4-yl)isoxazol-5-yl)propanamido)propanamido)-4-oxobutanoic acid], the inhibitory constant (Ki) in assay [1] (read-out: Ki MMP-14h) was above 1000 nM; in assay [2] (read-out: Ki MMP-12h), 59 nM; in assay [3] (read-out: Ki MMP-10h) it was 93 nM; in assay [4] (read-out: Ki MMP-13h) it was 18 nM; in assay [5] (read-out: Ki MMP-9h), above 1000 nM; in assay [6] (read-out: Ki MMP-2h) it was 86 nM. Also, the Ki in assay [7] (read-out: Ki MMP-8h) stood at 649 nM; in assay [8] (read-out: Ki MMP-3h) it was 85 nM.

For `NC(=O)[C@H](CCC(=O)O)NC(=O)[C@H](CCCC(=O)O)NC(=O)CCc1cc(-c2ccc(-c3cccc(Cl)c3)cc2)no1` [Compound 11, (S)-6-((S)-1-amino-4-carboxy-1-oxobutan-2-ylamino)-5-(3-(3-(3′-chlorobiphenyl-4-yl)isoxazol-5-yl)propanamido)-6-oxohexanoic acid], the inhibition constant Ki in assay [1] was above 10000 nM; in assay [2], 254 nM; in assay [3], 556 nM; in assay [4], 191 nM; in assay [5], above 10000 nM; in assay [6] it was above 1000 nM. Moreover, the inhibition constant Ki in assay [7] was above 1000 nM; in assay [8], 302 nM.

For the compound `NC(=O)[C@H](CCCC(=O)O)NC(=O)[C@H](CCC(=O)O)NC(=O)CCc1cc(-c2ccc(-c3cccc(Cl)c3)cc2)no1` [Compound 12, (S)-6-amino-5-((S)-4-carboxy-2-(3-(3-(3′-chlorobiphenyl-4-yl)isoxazol-5-yl)propanamido)butanamido)-6-oxohexanoic acid], the Ki in assay [1] (read-out: Ki MMP-14h) is above 5000 nM; in assay [2] (read-out: Ki MMP-12h), 8.2 nM; in assay [3] (read-out: Ki MMP-10h), 51 nM; in assay [4] (read-out: Ki MMP-13h), 52 nM; in assay [5] (read-out: Ki MMP-9h), above 1000 nM; in assay [6] (read-out: Ki MMP-2h), 150 nM. Further, the Ki in assay [7] (read-out: Ki MMP-8h) came out at 452 nM; in assay [8] (read-out: Ki MMP-3h), 129 nM.

As for `NC(=O)[C@H](CCCC(=O)O)NC(=O)[C@H](CCCC(=O)O)NC(=O)CCc1cc(-c2ccc(-c3cccc(Cl)c3)cc2)no1` [Compound 13, (S)-6-amino-5-((S)-5-carboxy-2-(3-(3-(3′-chlorobiphenyl-4-yl)isoxazol-5-yl)propanamido)pentanamido)-6-oxohexanoïque], the Ki was 553 nM in assay [1]; 348 nM in assay [2]; above 5000 nM in assay [3]; 91 nM in assay [4]; 605 nM in assay [5]; above 1000 nM in assay [6]. Also, the results for the Ki in assay [7] and in assay [8] were 638 nM and 575 nM, respectively.

`NC(=O)[C@H](CCC(=O)O)NC(=O)CCc1cc(-c2ccccc2)no1` [Compound 15, (S)-5-amino-5-oxo-4-(3-(3-phenylisoxazol-5-yl)propanamido)pentanoic acid]: the Ki in assay [1] (read-out: Ki MMP-14h) was above 1000 nM; in assay [2] (read-out: Ki MMP-12h), 398 nM; in assay [3] (read-out: Ki MMP-10h), above 5000 nM; in assay [4] (read-out: Ki MMP-13h) it was above 1000 nM; in assay [5] (read-out: Ki MMP-9h) it was above 1000 nM; in assay [6] (read-out: Ki MMP-2h), 762 nM. Besides, the Ki was 114 nM in assay [7] (read-out: Ki MMP-8h) and above 10000 nM in assay [8] (read-out: Ki MMP-3h).

As to `NC(=O)[C@H](CCC(=O)O)NC(=O)[C@H](CCC(=O)O)NC(=O)CCc1cc(-c2ccc(-c3ccccc3)cc2)no1` [Compound 16, (S)-5-amino-4-((S)-2-(3-(3-(biphenyl-4-yl)isoxazol-5-yl)propanamido)-4-carboxybutanamido)-5-oxopentanoic acid], the inhibition constant (Ki) in assay [1] is above 1000 nM; in assay [2], 3.4 nM; in assay [3], 114 nM; in assay [4], 60 nM; in assay [5], above 1000 nM; in assay [6] it was 83 nM. Further, the Ki in assay [7] came out at 383 nM; in assay [8] it was 78 nM.
